This test concerns 653999-131-R-J2-PDC complex spheroid viability. Briefly: Anticancer human tumor 653999-131-R-J2-PDC patient-derived lung adenocarcinoma cell line growth inhibition. To be noted: for viability, T/C: stronger effect = lower value; for IC50: curve of compound. From the text:
Multicellular complex tumor spheroid response to LSD1 Inhibitor Iadademstat in combination with a variety of drugs and investigational agents in selected tumor cell lines
The current study was undertaken to assess response to LSD1 inhibitors in combination with standard-of-care drugs and investigational agents in solid tumor complex spheroid models as well as in the K-562 leukemia. Complex spheroids include a stromal component modeled by human endothelial cells (HUVEC) and fibroblasts modeled by human mesenchymal stem cells (MSCs). The concentration ranges selected for each drug and investigational agent were based upon clinically achievable concentrations if the clinical Cmax of the agent was known.
Compounds. The drugs and investigational agents used in this study are listed on Table 1. All of the agents used, including staurosporine (NSC755774) and gemcitabine (NSC613327), were obtained from the Developmental Therapeutics Program, NCI. FDA-approved anticancer drugs are available from the NCI at http://dtp.nci.nih.gov/branches/dscb/oncology_drugset_explanation.html. Drugs and investigational agents were >95% pure by proton nuclear magnetic resonance (NMR) and liquid chromatography/mass spectrometry (LC/MS). Stock solutions were prepared at 400x in DMSO, stored at -70 degrees C, and diluted in fresh medium prior to their use. The final concentration of DMSO in cell culture wells never exceeded 0.25% (v/v). The FDA-approved anticancer drug set is available from the Developmental Therapeutics Program at https://dtp.cancer.gov/organization/dscb/obtaining/available_plates.htm. All drugs and investigational agents were tested over a range starting from a high concentration at or near the clinical Cmax and decreasing in half-log increments. If the clinical Cmax for an agent had not been determined, the highest concentration tested was 10 microM.
Cell Lines. The patient-derived cancer cell (PDC) lines: 292921-168-R-J2-PDC, K24384-001-R-PDC, and 521955-158-R2-J5-PDC pancreatic carcinomas, 556581-035-R-J1 ovarian carcinoma, 324938-238-R-J1-PDC, 855422-203-R-J1-PDC and 883617-216-R-J1-PDC urothelial bladder carcinomas, 743489-274-T-PDC renal cell carcinoma, 138582-R-J1 Merkel cell tumor, K60290-347-R-J1 and K57222-313-R-J1-PDC glioblastomas, 653999-131-R-J2-PDC, LG0703-F948-PDC, and 349418-098-R-PDC non-small cell lung carcinomas, 885512-296-R-J2-PDC, 171881-019-R-J1-PDC breast carcinomas and 186277-243-T-J2-PDC and 233499-124-R-J2-PDC colon carcinomas were obtained from the NCI Patient-Derived Models Repository (PDMR, https://pdmr.cancer.gov). The established cell lines NCI/ADR-RES (RRID:CVCL_14520 and OVCAR-5 (RRID:CVCL_1628) ovarian carcinomas, 786-O (RRID:CVCL_1051) and A498 (RRID:CVCL_A498) renal cell carcinoma, NCI-H211 (ATCC, cat. CRL-5824; RRID:CVCL_1529), NCI-H196 (ATCC, cat. CRL-5823, RRID:CVCL_1509), SW 1271 (ATCC, cat. CRL-2177, RRID:CVCL_1716) and NCI-H1876 (ATCC, cat. CRL-5902, RRID:CVCL_1503) small cell lung carcinomas, MDA-MB-231 (RRID:CVCL_0062) and MDA-MB-468 (RRID:CVCL_0419)breast carcinomas (10-12). Pooled donor human umbilical vein endothelial cells (HUVEC, Lonza, cat. CC-2519) and human mesenchymal stem cells (hMSC, Lonza, cat. PT-2501) were purchased from Lonza (Walkersville, MD).
Cell Culture. All cells were maintained in an incubator at 37 degrees C and 5% CO2 with 95% humidity. The PDC lines were cultured according to standard operating procedures established by the NCI PDMR (https://pdmr.cancer.gov). Briefly all PDCs were thawed and cultured in Matrigel-coated flasks prepared with a working solution of 1X Ham's F-12 nutrient mix, without supplementation (Invitrogen, Waltham, MA, cat. 11765054), 100 U/mL penicillin-streptomycin (Invitrogen, cat. 15140122), and 2.5% Matrigel (Corning Inc., Corning, NY, cat. 354248) for the first three passages. […]

Where “and” joins values, the source holds several entries; their conditions need not be identical. Equal entries are not always repeated. Where only a bound is given, the exact number is not on record here.

As usually defined, the viability, T/C is the ratio of treated to control. One may read the IC50 as the midpoint of a concentration-inhibition curve.
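Also: spheroids exposed to agents for seven days before readout.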

As to `CC(C)CC(NC(=O)C(Cc1ccccc1)NC(=O)c1cnccn1)B(O)O` (stereo not drawn), the half-inhibitory concentration (IC50) is 2.17 nM and 0.852 nM. Further, the viability, T/C (compound 0.000316 µM) is 114% and 119%. Moreover, the viability, T/C (compound 0.001 µM) is 103% and 38.1%. Also, for the setting “compound 0.00316 µM”, the viability, T/C was 23.9% and 13.2%. In addition, the viability, T/C (compound 0.01 µM) is 1.83% and 5.29%. Further, the viability, T/C (compound 0.0316 µM) was 2.67% and 1.3%. Besides, the viability, T/C (compound 0.1 µM) was 0.76% and 1.16%.

Consider `CC(C)CC(NC(=O)CNC(=O)c1cc(Cl)ccc1Cl)B1OC(=O)CC(CC(=O)O)(C(=O)O)O1` (stereo not drawn), for which the IC50 is 13.4 nM and 19.9 nM. Besides, the viability, T/C (compound 0.000316 µM) was 101% and 110%. Also, the viability, T/C (compound 0.001 µM) was 108% and 115%. For the same compound, the viability, T/C (compound 0.00316 µM) is 92.6% and 107%. Besides, under “compound 0.01 µM”, the viability, T/C was 56.9% and 74.5%. The viability, T/C (compound 0.0316 µM) is 25.3% and 34.1%. In addition, the viability, T/C (compound 0.1 µM) was 5.14% and 18.5%.

As for `CC1(C)CCC(CN2CCN(c3ccc(C(=O)NS(=O)(=O)c4ccc(NCC5CCOCC5)c([N+](=O)[O-])c4)c(Oc4cnc5[nH]ccc5c4)c3)CC2)=C(c2ccc(Cl)cc2)C1`, the 50% inhibitory concentration (IC50) is > 10000 nM and 6320 nM. The viability, T/C (compound 0.0316 µM) was 92.8% and 101%. Moreover, under “compound 0.1 µM”, the viability, T/C is 106% and 102%. The viability, T/C (compound 0.316 µM) is 97% and 104%. Besides, the viability, T/C (compound 1 µM) was 83.8% and 97.2%. Moreover, the viability, T/C (compound 3.16 µM) is 92.2% and 85.6%. Besides, under “compound 10 µM”, the viability, T/C is 60.5% and 26.7%.

On to `CC1COCCN1c1cc(-c2ccnn2C)c2ccnc(-c3ccn[nH]3)c2n1` (stereo not drawn), for which the IC50 was 18.8 nM and 18.2 nM. In addition, the viability, T/C (compound 0.00316 µM) was 81.7% and 58.4%. Besides, the viability, T/C (compound 0.01 µM) was 66.4% and 56.5%. Also, for the setting “compound 0.0316 µM”, the viability, T/C is 36.3% and 41.4%. Under “compound 0.1 µM”, the viability, T/C is 31.9% and 35.9%. Besides, where the note is “compound 0.316 µM”, the viability, T/C is 29.8% and 45.5%. Moreover, where the note is “compound 1 µM”, the viability, T/C is 30.5% and 53.4%.

Consider `CCN(c1cc(-c2ccc(CN3CCOCC3)cc2)cc(C(=O)NCc2c(C)cc(C)[nH]c2=O)c1C)C1CCOCC1`, for which the IC50 is greater than 3000 nM. The viability, T/C (compound 0.00949 µM) was 91.4% and 104%. Besides, the viability, T/C (compound 0.03 µM) was 96.6% and 104%. Moreover, the viability, T/C (compound 0.0949 µM) is 103%. Moreover, under “compound 0.3 µM”, the viability, T/C is 97.3% and 101%. Moreover, the viability, T/C (compound 0.949 µM) was 91.9% and 89.5%. The viability, T/C (compound 3 µM) is 92.6% and 92%.

`CC[C@@]1(O)C(=O)OCc2c1cc1n(c2=O)Cc2cc3c(CN(C)C)c(O)ccc3nc2-1`: the half-inhibitory concentration (IC50) was 7.34 nM and 15.4 nM. For the same compound, for the setting “compound 0.000316 µM”, the viability, T/C was 108% and 99%. In addition, the viability, T/C (compound 0.001 µM) was 88.5% and 100%. The viability, T/C (compound 0.00316 µM) is 66% and 83.8%. Besides, the viability, T/C (compound 0.01 µM) is 41.8% and 55.4%. Further, the viability, T/C (compound 0.0316 µM) is 34.3% and 41.5%. Further, the viability, T/C (compound 0.1 µM) is 22.4% and 29.9%.

With `CCc1c2c(nc3ccc(O)cc13)-c1cc3c(c(=O)n1C2)COC(=O)[C@]3(O)CC`, the half-inhibitory concentration (IC50) was less than 0.949 nM. Also, the viability, T/C (compound 0.000949 µM) is 25.8% and 33.6%. Moreover, the viability, T/C (compound 0.003 µM) is 18.4% and 20.9%. The viability, T/C (compound 0.00949 µM) is 11.9% and 12.5%. For the same compound, the viability, T/C (compound 0.03 µM) was 7.76% and 6.48%. In addition, for the setting “compound 0.0949 µM”, the viability, T/C is 5.86% and 7.35%. The viability, T/C (compound 0.3 µM) is 5.31% and 11.3%.

Take `COc1cc(C2c3cc4c(cc3C(OC3OC5COC(C)OC5C(O)C3O)C3COC(=O)C23)OCO4)cc(OC)c1O` (stereo not drawn): the IC50 was 230 nM and 199 nM. In addition, for the setting “compound 0.00949 µM”, the viability, T/C is 80.5% and 89.5%. Moreover, the viability, T/C (compound 0.03 µM) is 76.5% and 74.9%. Also, the viability, T/C (compound 0.0949 µM) was 64.3% and 57.3%. Besides, the viability, T/C (compound 0.3 µM) was 42.8% and 45.1%. In addition, the viability, T/C (compound 0.949 µM) was 37.4% and 36.7%. Where the note is “compound 3 µM”, the viability, T/C was 25.3% and 27.8%.

Take `COc1cc(Nc2ncc3c(n2)-c2ccc(Cl)cc2C(c2c(F)cccc2OC)=NC3)ccc1C(=O)O`: the half-maximal inhibitory concentration (IC50) was greater than 1000 nM. The viability, T/C (compound 0.00316 µM) was 96.9% and 78.1%. Moreover, where the note is “compound 0.01 µM”, the viability, T/C is 90.6% and 74%. Further, the viability, T/C (compound 0.0316 µM) is 68.8% and 68.2%. Besides, the viability, T/C (compound 0.1 µM) was 70% and 73.6%. The viability, T/C (compound 0.316 µM) was 73.4% and 78%. For the same compound, the viability, T/C (compound 1 µM) was 68.2% and 64.2%.
